Data reported in patent publication US8802597B2, “Herbicidal pyrimidines” (E I du Pont de Nemours and Company, priority 2003, dated 2014).

Experiments:
Assay in all cases: Test C pre/postemergence
Type in all cases: in vivo
[1] = system: morningglory (Ipomoea coccinea); conditions: for Morningglory plant response rating: scale 0 to 100 (0 no effect, 100 complete control)
How it was run: (§1)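 Test compounds, formulated in a non-phytotoxic solvent mix with surfactant, were applied to freshly planted seeds and, at the same time, to emerged plants at 1- to 4-leaf stage (2 to 18 cm). After 12 to 14 days in the greenhouse, response was scored visually versus controls, 0 = no effect, 100 = complete control.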

[2] = system: crabgrass (Digitaria sanguinalis); conditions: for Crabgrass plant response rating: scale 0 to 100 (0 no effect, 100 complete control)
How it was run: as §1

[3] = system: eastern black nightshade (Solanum ptycanthum); conditions: Preemergence
How it was run: as §1

[4] = system: kochia (Kochia scoparia); conditions: for Kochia plant response rating: scale 0 to 100 (0 no effect, 100 complete control)
How it was run: as §1

[5] = system: giant foxtail (Setaria faberii); conditions: for Foxtail, Giant plant response rating: scale 0 to 100 (0 no effect, 100 complete control)
How it was run: as §1

[6] = system: woolly cupgrass (Eriochloa villosa); conditions: for Cupgrass, Woolly plant response rating: scale 0 to 100 (0 no effect, 100 complete control)
How it was run: as §1

[7] = system: velvetleaf (Abutilon theophrasti); conditions: for Velvetleaf plant response rating: scale 0 to 100 (0 no effect, 100 complete control)
How it was run: as §1

[8] = system: yellow nutsedge (Cyperus esculentus); conditions: for Nutsedge, Yellow plant response rating: scale 0 to 100 (0 no effect, 100 complete control)
How it was run: as §1

[9] = system: pigweed (Amaranthus retroflexus); conditions: for Pigweed plant response rating: scale 0 to 100 (0 no effect, 100 complete control)
How it was run: as §1

[10] = system: cocklebur (Xanthium strumarium); conditions: for Cocklebur plant response rating: scale 0 to 100 (0 no effect, 100 complete control)
How it was run: as §1

[11] = system: common ragweed (Ambrosia elatior); conditions: for Ragweed plant response rating: scale 0 to 100 (0 no effect, 100 complete control)
How it was run: as §1

[12] = system: common (oilseed) sunflower (Helianthus annuus); conditions: Preemergence
How it was run: as §1

[13] = Postemergence, 250 g ai/ha, scale 0 to 100
[14] = Postemergence, 500 g ai/ha, scale 0 to 100
[15] = Preemergence, 62 g ai/ha, scale 0 to 100, 0 no effect, 100 complete control
[16] = Preemergence, 125 g ai/ha, scale 0 to 100
[17] = Preemergence, 250 g ai/ha, scale 0 to 100
[18] = Preemergence, 500 g ai/ha, scale 0 to 100
[19] = 62 g ai/ha, scale 0 to 100, 0 no effect, 100 complete control

Nc1nc(C2CC2)nc(C=NO)c1Br [Compound 27]
85: Morningglory plant response rating ([1]; Postemergence, 125 g ai/ha) | Plant response rating, Morningglory [1, 13] | Plant response rating, Morningglory [1, 14] | Plant response rating, Crabgrass [2, 18] | Plant response rating, Ragweed [11, 17]
65: Plant response rating, Ragweed [11, 16]
100: Plant response rating, Morningglory [1, 18] | Plant response rating, Nightshade ([3]; 250 g ai/ha, scale 0 to 100) | Plant response rating, Nightshade ([3]; 500 g ai/ha, scale 0 to 100) | Plant response rating, Pigweed [9, 18]
25: Cocklebur plant response rating ([10]; Postemergence, 125 g ai/ha) | Plant response rating, Cocklebur [10, 13] | Plant response rating, Cocklebur [10, 14]
10: Plant response rating, Cupgrass, Woolly [6, 17]
60: Plant response rating, Kochia [4, 14]
80: Plant response rating, Pigweed [9, 14] | Plant response rating, Pigweed [9, 16]
90: Plant response rating, Pigweed [9, 17] | Plant response rating, Sunflower ([12]; 250 g ai/ha, scale 0 to 100)
30: Plant response rating, Crabgrass [2, 14] | Plant response rating, Kochia [4, 17] | Plant response rating, Velvetleaf [7, 14] | Plant response rating, Pigweed [9, 13]
15: Plant response rating, Cupgrass, Woolly [6, 18]
40: Plant response rating, Ragweed [11, 13]
20: Morningglory plant response rating ([1]; Postemergence, 62 g ai/ha) | Kochia plant response rating ([4]; Postemergence, 125 g ai/ha) | Plant response rating, Foxtail, Giant [5, 18] | Plant response rating, Nutsedge, Yellow [8, 18] | Pigweed plant response rating ([9]; Postemergence, 125 g ai/ha) | Plant response rating, Pigweed [9, 15] | Cocklebur plant response rating ([10]; Postemergence, 62 g ai/ha) | Ragweed plant response rating ([11]; Postemergence, 125 g ai/ha) | Plant response rating, Ragweed [11, 15] | Plant response rating, Sunflower ([12]; 125 g ai/ha, scale 0 to 100)
5: Plant response rating, Crabgrass [2, 13] | Pigweed plant response rating ([9]; Postemergence, 62 g ai/ha) | Ragweed plant response rating ([11]; Postemergence, 62 g ai/ha)
50: Plant response rating, Kochia [4, 13] | Plant response rating, Velvetleaf [7, 17] | Plant response rating, Cocklebur [10, 16] | Plant response rating, Ragweed [11, 14]
95: Plant response rating, Morningglory [1, 17] | Plant response rating, Cocklebur [10, 18] | Plant response rating, Ragweed [11, 18] | Plant response rating, Sunflower ([12]; 500 g ai/ha, scale 0 to 100)
45: Plant response rating, Kochia [4, 18]
70: Plant response rating, Morningglory [1, 16] | Plant response rating, Nightshade ([3]; 125 g ai/ha, scale 0 to 100) | Plant response rating, Velvetleaf [7, 18] | Plant response rating, Cocklebur [10, 17]
0: Plant response rating, Morningglory [1, 15] | Crabgrass plant response rating ([2]; Postemergence, 62 g ai/ha) | Crabgrass plant response rating ([2]; Postemergence, 125 g ai/ha) | Plant response rating, Crabgrass [2, 15] | Plant response rating, Crabgrass [2, 16] | Plant response rating, Crabgrass [2, 17] | Plant response rating, Nightshade [3, 19] | Kochia plant response rating ([4]; Postemergence, 62 g ai/ha) | Plant response rating, Kochia [4, 15] | Plant response rating, Kochia [4, 16] | Foxtail, Giant plant response rating ([5]; Postemergence, 62 g ai/ha) | Foxtail, Giant plant response rating ([5]; Postemergence, 125 g ai/ha) | Plant response rating, Foxtail, Giant [5, 13] | Plant response rating, Foxtail, Giant [5, 14] | Plant response rating, Foxtail, Giant [5, 15] | Plant response rating, Foxtail, Giant [5, 16] | Plant response rating, Foxtail, Giant [5, 17] | Cupgrass, Woolly plant response rating ([6]; Postemergence, 62 g ai/ha) | Cupgrass, Woolly plant response rating ([6]; Postemergence, 125 g ai/ha) | Plant response rating, Cupgrass, Woolly [6, 13] | Plant response rating, Cupgrass, Woolly [6, 14] | Plant response rating, Cupgrass, Woolly [6, 15] | Plant response rating, Cupgrass, Woolly [6, 16] | Velvetleaf plant response rating ([7]; Postemergence, 62 g ai/ha) | Velvetleaf plant response rating ([7]; Postemergence, 125 g ai/ha) | Plant response rating, Velvetleaf [7, 13] | Plant response rating, Velvetleaf [7, 15] | Plant response rating, Velvetleaf [7, 16] | Nutsedge, Yellow plant response rating ([8]; Postemergence, 62 g ai/ha) | Nutsedge, Yellow plant response rating ([8]; Postemergence, 125 g ai/ha) | Plant response rating, Nutsedge, Yellow [8, 13] | Plant response rating, Nutsedge, Yellow [8, 14] | Plant response rating, Nutsedge, Yellow [8, 15] | Plant response rating, Nutsedge, Yellow [8, 16] | Plant response rating, Nutsedge, Yellow [8, 17] | Plant response rating, Cocklebur [10, 15] | Plant response rating, Sunflower [12, 19]

COC(=O)c1nc(C2CC2C)nc(N)c1Br (stereo not shown) [Compound 28]
85: Kochia plant response rating ([4]; Postemergence, 125 g ai/ha) | Cocklebur plant response rating ([10]; Postemergence, 62 g ai/ha)
30: Pigweed plant response rating ([9]; Postemergence, 62 g ai/ha)
60: Plant response rating, Pigweed [9, 13]
20: Plant response rating, Crabgrass [2, 14]
45: Velvetleaf plant response rating ([7]; Postemergence, 62 g ai/ha) | Plant response rating, Sunflower [12, 19]
80: Morningglory plant response rating ([1]; Postemergence, 62 g ai/ha) | Plant response rating, Kochia [4, 16] | Plant response rating, Pigweed [9, 15] | Ragweed plant response rating ([11]; Postemergence, 125 g ai/ha)
65: Ragweed plant response rating ([11]; Postemergence, 62 g ai/ha) | Plant response rating, Ragweed [11, 15]
55: Plant response rating, Velvetleaf [7, 16]
90: Plant response rating, Kochia [4, 17] | Plant response rating, Cocklebur [10, 15] | Plant response rating, Ragweed [11, 13]
75: Kochia plant response rating ([4]; Postemergence, 62 g ai/ha) | Plant response rating, Velvetleaf [7, 14] | Plant response rating, Pigweed [9, 14]
95: Morningglory plant response rating ([1]; Postemergence, 125 g ai/ha) | Plant response rating, Morningglory [1, 13] | Plant response rating, Morningglory [1, 14] | Plant response rating, Kochia [4, 13] | Plant response rating, Kochia [4, 14] | Plant response rating, Velvetleaf [7, 17] | Plant response rating, Pigweed [9, 16] | Cocklebur plant response rating ([10]; Postemergence, 125 g ai/ha) | Plant response rating, Cocklebur [10, 13] | Plant response rating, Cocklebur [10, 16] | Plant response rating, Cocklebur [10, 17] | Plant response rating, Ragweed [11, 14] | Plant response rating, Ragweed [11, 16]
35: Pigweed plant response rating ([9]; Postemergence, 125 g ai/ha)
70: Plant response rating, Velvetleaf [7, 13]
15: Plant response rating, Foxtail, Giant [5, 14]
100: Plant response rating, Morningglory [1, 15] | Plant response rating, Morningglory [1, 16] | Plant response rating, Morningglory [1, 17] | Plant response rating, Morningglory [1, 18] | Plant response rating, Nightshade [3, 19] | Plant response rating, Nightshade ([3]; 125 g ai/ha, scale 0 to 100) | Plant response rating, Nightshade ([3]; 250 g ai/ha, scale 0 to 100) | Plant response rating, Nightshade ([3]; 500 g ai/ha, scale 0 to 100) | Plant response rating, Kochia [4, 18] | Plant response rating, Velvetleaf [7, 18] | Plant response rating, Pigweed [9, 17] | Plant response rating, Pigweed [9, 18] | Plant response rating, Cocklebur [10, 14] | Plant response rating, Cocklebur [10, 18] | Plant response rating, Ragweed [11, 17] | Plant response rating, Ragweed [11, 18] | Plant response rating, Sunflower ([12]; 250 g ai/ha, scale 0 to 100) | Plant response rating, Sunflower ([12]; 500 g ai/ha, scale 0 to 100)
0: Crabgrass plant response rating ([2]; Postemergence, 62 g ai/ha) | Crabgrass plant response rating ([2]; Postemergence, 125 g ai/ha) | Plant response rating, Crabgrass [2, 13] | Plant response rating, Kochia [4, 15] | Foxtail, Giant plant response rating ([5]; Postemergence, 62 g ai/ha) | Foxtail, Giant plant response rating ([5]; Postemergence, 125 g ai/ha) | Plant response rating, Foxtail, Giant [5, 13] | Plant response rating, Foxtail, Giant [5, 15] | Plant response rating, Foxtail, Giant [5, 16] | Plant response rating, Foxtail, Giant [5, 17] | Plant response rating, Foxtail, Giant [5, 18] | Cupgrass, Woolly plant response rating ([6]; Postemergence, 62 g ai/ha) | Cupgrass, Woolly plant response rating ([6]; Postemergence, 125 g ai/ha) | Plant response rating, Cupgrass, Woolly [6, 13] | Plant response rating, Cupgrass, Woolly [6, 14] | Plant response rating, Cupgrass, Woolly [6, 15] | Plant response rating, Cupgrass, Woolly [6, 16] | Plant response rating, Cupgrass, Woolly [6, 17] | Plant response rating, Cupgrass, Woolly [6, 18] | Nutsedge, Yellow plant response rating ([8]; Postemergence, 62 g ai/ha) | Nutsedge, Yellow plant response rating ([8]; Postemergence, 125 g ai/ha) | Plant response rating, Nutsedge, Yellow [8, 13] | Plant response rating, Nutsedge, Yellow [8, 14] | Plant response rating, Nutsedge, Yellow [8, 15] | Plant response rating, Nutsedge, Yellow [8, 16] | Plant response rating, Nutsedge, Yellow [8, 17] | Plant response rating, Nutsedge, Yellow [8, 18]
50: Velvetleaf plant response rating ([7]; Postemergence, 125 g ai/ha) | Plant response rating, Velvetleaf [7, 15] | Plant response rating, Sunflower ([12]; 125 g ai/ha, scale 0 to 100)
